Measurements taken from publication PMC10747300, “Identification of Indazole-Based Thiadiazole-Bearing Thiazolidinone Hybrid Derivatives: Theoretical and Computational Approaches to Develop Promising Anti-Alzheimer’s Candidates” (Pharmaceuticals, 2023).
Where “and” joins values, the source holds several entries; their conditions need not be identical. Equal entries are not always repeated. Where two headings read alike, the source gives them in different places.

Assays:
[1] = molecular target: T1, acetylcholinesterase (AChE) (Homo sapiens, UniProt P22303); test: biochemical
T1 construct: purchased Sigma 9000-81-1 (so in the source); this is the CAS number of acetylcholinesterase, not a catalogue number
T1 sequence (P22303 32-614): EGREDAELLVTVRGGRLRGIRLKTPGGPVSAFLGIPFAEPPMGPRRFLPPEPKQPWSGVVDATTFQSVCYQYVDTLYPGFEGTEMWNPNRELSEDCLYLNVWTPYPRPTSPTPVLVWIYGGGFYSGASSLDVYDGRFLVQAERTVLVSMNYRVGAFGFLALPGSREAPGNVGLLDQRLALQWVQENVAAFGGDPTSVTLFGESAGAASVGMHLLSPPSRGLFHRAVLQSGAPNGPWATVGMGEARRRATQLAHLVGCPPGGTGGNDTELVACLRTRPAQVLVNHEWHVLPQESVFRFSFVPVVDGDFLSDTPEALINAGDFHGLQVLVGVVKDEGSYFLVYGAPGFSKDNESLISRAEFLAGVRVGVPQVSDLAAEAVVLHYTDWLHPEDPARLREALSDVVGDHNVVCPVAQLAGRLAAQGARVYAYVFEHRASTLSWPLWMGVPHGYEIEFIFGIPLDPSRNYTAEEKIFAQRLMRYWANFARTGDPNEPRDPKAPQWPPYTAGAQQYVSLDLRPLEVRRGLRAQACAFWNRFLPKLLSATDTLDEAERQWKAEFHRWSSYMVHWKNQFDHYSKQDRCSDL
Method: (§1) A spectrophotometric analysis was conducted by Ellman et al. to determine the inhibition of ChEs (AChE and BuChE). […] An incubation of 15 min was performed at room temperature with 140 L of sodium phosphate buffer (pH 8.0), 20 L of AChE/BuChE solution, and 20 L of the test sample. AChE/BuChE solutions containing DTNB were introduced into the 10 L solution to initiate the reaction. […] A percentage of inhibition was calculated using the ratio of enzyme activity in the presence of the test sample (E), minus enzyme activity without the test sample (S), expressed as E–S/E100. Each substance’s inhibition of substrate hydrolysis by ChE was quantified using its IC50 value (g/mL) or M. Compounds with the same IC50 values are calculated using the same standardized plot.

[2] = molecular target: T2, butyrylcholinesterase (BuChE) (Homo sapiens, UniProt P06276); test: biochemical
T2 construct: purchased Sigma 9001-08-5 (this is the CAS number of cholinesterase, not a catalogue number)
T2 sequence (P06276 29-602): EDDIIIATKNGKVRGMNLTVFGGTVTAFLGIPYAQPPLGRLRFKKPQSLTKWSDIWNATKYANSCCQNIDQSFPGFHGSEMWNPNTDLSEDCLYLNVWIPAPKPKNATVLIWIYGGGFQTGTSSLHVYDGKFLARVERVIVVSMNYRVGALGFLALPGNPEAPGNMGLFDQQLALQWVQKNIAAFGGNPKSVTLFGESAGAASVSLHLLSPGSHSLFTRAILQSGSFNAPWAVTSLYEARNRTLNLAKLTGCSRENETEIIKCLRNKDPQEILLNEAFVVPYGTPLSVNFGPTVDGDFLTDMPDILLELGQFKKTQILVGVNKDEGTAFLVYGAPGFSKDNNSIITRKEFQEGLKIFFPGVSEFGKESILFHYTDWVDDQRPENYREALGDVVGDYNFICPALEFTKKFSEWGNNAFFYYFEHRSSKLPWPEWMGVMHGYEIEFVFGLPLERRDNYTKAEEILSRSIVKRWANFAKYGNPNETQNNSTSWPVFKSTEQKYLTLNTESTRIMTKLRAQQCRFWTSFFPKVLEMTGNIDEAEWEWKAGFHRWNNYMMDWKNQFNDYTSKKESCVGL
Method: as §1

[3] = substrate ATCh, DTNB, pH 8.0, 15 min incubation, read-out: AChE IC50 ± SEM
[4] = printed without unit in Figure 2 (second value of each pair), read-out: BuChE IC50
[5] = substrate BTCh, DTNB, pH 8.0, 15 min incubation, read-out: BuChE IC50 ± SEM
[6] = printed without unit in text / Figure 2, read-out: AChE IC50

Structure (SMILES): O=C1N/C(=N/c2nnc(-c3ccc4[nH]ncc4c3)s2)S/C1=C/c1cc(Cl)c(Cl)c([N+](=O)[O-])c1 [Compound 1, (Z)-2-((5-(1H-Indazol-5-yl)-1,3,4-Thiadiazol-2-yl)Imino)-5-((E)-3,4-Dichloro-5-Nitrobenzylidene)Thiazolidin-4-One]
- IC50 [1, 3]: 0.86 µM and 1.1 µM
- IC50 [2, 4]: 1.19 ± 0.42 µM
- IC50 [2, 5]: 0.89 µM and 1.19 µM

Structure (SMILES): O=C1N/C(=N/c2nnc(-c3ccc4[nH]ncc4c3)s2)S/C1=C/c1ccccc1Cl [Compound 2, (Z)-2-((5-(1H-Indazol-5-yl)-1,3,4-Thiadiazol-2-yl)Imino)-5-((E)-2-Chlorobenzylidene)Thiazolidin-4-One]
- IC50 [1, 6]: 3.11 ± 0.59 µM
- IC50 [1, 3]: 3.11 ± 0.59 µM
- IC50 [2, 5]: 3.36 ± 0.28 µM

Structure (SMILES): Cc1cc(C)cc(/C=C2/S/C(=N\c3nnc(-c4ccc5[nH]ncc5c4)s3)NC2=O)c1 [Compound 4, (Z)-2-((5-(1H-Indazol-5-yl)-1,3,4-Thiadiazol-2-yl)Imino)-5-((E)-3,5-Dimethylbenzylidene)Thiazolidin-4-One]
- IC50 [1, 6]: 8.6 ± 1.05 µM
- IC50 [1, 3]: 8.6 ± 1.05 µM
- IC50 [2, 5]: 8.84 ± 0.98 µM

Structure (SMILES): O=C1N/C(=N/c2nnc(-c3ccc4[nH]ncc4c3)s2)S/C1=C/c1ccc(C(F)(F)F)cc1 [Compound 9, (Z)-2-((5-(1H-Indazol-5-yl)-1,3,4-Thiadiazol-2-yl)Imino)-5-((E)-4-(Trifluoromethyl)Benzylidene)Thiazolidin-4-One]
- IC50 [1, 6]: 0.86 ± 0.3 µM
- IC50 [1, 3]: 0.86 ± 0.3 µM
- IC50 [2, 4]: 0.89 ± 0.12 µM
- IC50 [2, 5]: 0.89 ± 0.12 µM

Structure (SMILES): O=C1N/C(=N/c2nnc(-c3ccc4[nH]ncc4c3)s2)S/C1=C/c1ccc(Cl)c(Cl)c1 [Compound 8, (Z)-2-((5-(1H-Indazol-5-yl)-1,3,4-Thiadiazol-2-yl)Imino)-5-((E)-3,4-Dichlorobenzylidene)Thiazolidin-4-one]
- IC50 [1, 3]: 1.22 ± 0.64 µM
- IC50 [2, 5]: 1.29 ± 0.41 µM

Structure (SMILES): Cc1cc(Br)cc(/C=C2/S/C(=N\c3nnc(-c4ccc5[nH]ncc5c4)s3)NC2=O)c1 [Compound 12, (Z)-2-((5-(1H-Indazol-5-yl)-1,3,4-Thiadiazol-2-yl)Imino)-5-((E)-3-Bromo-5-Methylbenzylidene)Thiazolidin-4-One]
- IC50 [1, 6]: 25.12 ± 0.18 µM
- IC50 [1, 3]: 25.12 ± 0.18 µM
- IC50 [2, 5]: 26.2 ± 0.67 µM

Structure (SMILES): O=C1N/C(=N/c2nnc(-c3ccc4[nH]ncc4c3)s2)S/C1=C/c1ccc(Br)c([N+](=O)[O-])c1 [Compound 17, (Z)-2-((5-(1H-Indazol-5-yl)-1,3,4-Thiadiazol-2-yl)Imino)-5-((E)-4-Bromo-3-Nitrobenzylidene)Thiazolidin-4-One]
- IC50 [1, 6]: 22.3 ± 1 µM
- IC50 [1, 3]: 22.3 ± 1 µM
- IC50 [2, 5]: 20.5 ± 0.86 µM

Structure (SMILES): O=C1N/C(=N/c2nnc(-c3ccc4[nH]ncc4c3)s2)S/C1=C/c1cccc(Br)c1 [Compound 11, (Z)-2-((5-(1H-Indazol-5-yl)-1,3,4-Thiadiazol-2-yl)Imino)-5-((E)-3-Bromobenzylidene)Thiazolidin-4-One]
- IC50 [1, 6]: 26.7 ± 0.84 µM
- IC50 [1, 3]: 26.7 ± 0.84 µM
- IC50 [2, 5]: 27.08 ± 0.19 µM

Structure (SMILES): COc1cccc(/C=C2/S/C(=N\c3nnc(-c4ccc5[nH]ncc5c4)s3)NC2=O)c1 [Compound 6, (Z)-2-((5-(1H-Indazol-5-yl)-1,3,4-Thiadiazol-2-yl)Imino)-5-((E)-3-Methoxybenzylidene)Thiazolidin-4-One]
- IC50 [1, 6]: 12.7 ± 0.33 µM
- IC50 [1, 3]: 12.7 ± 0.33 µM
- IC50 [2, 5]: 13 ± 0.15 µM

Structure (SMILES): O=C1N/C(=N/c2nnc(-c3ccc4[nH]ncc4c3)s2)S/C1=C/c1ccccc1F [Compound 15, (Z)-2-((5-(1H-Indazol-5-yl)-1,3,4-Thiadiazol-2-yl)Imino)-5-((E)-2-Fluorobenzylidene)Thiazolidin-4-One]
- IC50 [1, 6]: 1.24 ± 0.36 µM
- IC50 [1, 3]: 1.24 ± 0.36 µM
- IC50 [2, 4]: 1.27 ± 0.4 µM
- IC50 [2, 5]: 1.27 ± 0.4 µM

Structure (SMILES): O=C1N/C(=N/c2nnc(-c3ccc4[nH]ncc4c3)s2)S/C1=C/c1ccc([N+](=O)[O-])cc1 [Compound 7, (Z)-2-((5-(1H-Indazol-5-yl)-1,3,4-Thiadiazol-2-yl)Imino)-5-((E)-4-Nitrobenzylidene)Thiazolidin-4-One]
- IC50 [1, 3]: 1.4 ± 0.31 µM
- IC50 [2, 5]: 1.57 ± 0.28 µM

Structure (SMILES): Cc1ccc(/C=C2/S/C(=N\c3nnc(-c4ccc5[nH]ncc5c4)s3)NC2=O)c(C)c1 [Compound 3, (Z)-2-((5-(1H-Indazol-5-yl)-1,3,4-Thiadiazol-2-yl)Imino)-5-((E)-2,4-Dimethylbenzylidene)Thiazolidin-4-One]
- IC50 [1, 6]: 8.26 ± 0.4 µM
- IC50 [1, 3]: 8.26 ± 0.4 µM
- IC50 [2, 5]: 8.8 ± 0.13 µM

Structure (SMILES): O=C1N/C(=N/c2nnc(-c3ccc4[nH]ncc4c3)s2)S/C1=C/c1ccc(F)cc1O [Compound 14, (Z)-2-((5-(1H-Indazol-5-yl)-1,3,4-Thiadiazol-2-yl)Imino)-5-((E)-4-Fluoro-2-Hydroxybenzylidene)Thiazolidin-4-One]
- IC50 [1, 6]: 0.92 ± 0.1 µM
- IC50 [1, 3]: 1.1 µM and 0.92 µM
- IC50 [2, 4]: 0.98 ± 0.48 µM
- IC50 [2, 5]: 1.19 µM and 0.98 µM

Structure (SMILES): O=C1N/C(=N/c2nnc(-c3ccc4[nH]ncc4c3)s2)S/C1=C/c1cccc2ccccc12 [Compound 13, (2Z,5E)-2-((5-(1H-Indazol-5-yl)-1,3,4-Thiadiazol-2-yl)Imino)-5-(Naphthalen-1-Ylmethylene)Thiazolidin-4-One]
- AChE IC50 ([1]; printed without unit in text / Figure 2): no discernable activity

Structure (SMILES): COc1ccc(/C=C2/S/C(=N\c3nnc(-c4ccc5[nH]ncc5c4)s3)NC2=O)cc1 [Compound 5, (Z)-2-((5-(1H-Indazol-5-yl)-1,3,4-Thiadiazol-2-yl)Imino)-5-((E)-4-Methoxybenzylidene)Thiazolidin-4-One]
- IC50 [1, 6]: 10.4 ± 0.98 µM
- IC50 [1, 3]: 10.4 ± 0.98 µM
- IC50 [2, 5]: 10.6 ± 0.74 µM

Structure (SMILES): O=C1N/C(=N/c2nnc(-c3ccc4[nH]ncc4c3)s2)S/C1=C/c1ccc(Br)cc1 [Compound 10, (Z)-2-((5-(1H-Indazol-5-yl)-1,3,4-Thiadiazol-2-yl)Imino)-5-((E)-4-Bromobenzylidene)Thiazolidin-4-One]
- IC50 [1, 6]: 24.68 ± 0.12 µM
- IC50 [1, 3]: 24.68 ± 0.12 µM
- IC50 [2, 5]: 25 ± 0.44 µM

Structure (SMILES): O=C1N/C(=N/c2nnc(-c3ccc4[nH]ncc4c3)s2)S/C1=C/c1cccc(F)c1 [Compound 16, (Z)-2-((5-(1H-Indazol-5-yl)-1,3,4-Thiadiazol-2-yl)Imino)-5-((E)-3-Fluorobenzylidene)Thiazolidin-4-One]
- IC50 [1, 6]: 1.2 ± 0.58 µM
- IC50 [1, 3]: 1.2 ± 0.58 µM
- IC50 [2, 4]: 1.2 ± 0.47 µM
- IC50 [2, 5]: 1.2 ± 0.47 µM
